Experimental data published in the supplement of paper PMC11208160.

assay: recombinant barcode read abundance after kanamycin selection (control-corrected) (log10(CPM+1)); higher = more efficient recombination; sequences stand for … in AGTGCAGAGAAAATCGGCCAGTTTTCTCTGCCTGCAGTCCGCATGCCGT…AGATTTATGCAGCGGACTGCCTTTCTCCCAAAGTGATAAACCGGACAGTATCATGGACCGGTTTTCCCGGTAATCCGTATTTGCAAGGTTGGTTTCACT; site = the 11-nt target
Description: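 Pooled E. coli target-specificity screen for the IS621 bridge recombinase. Each library plasmid pairs an 11-nt target (CT core) with a bridge RNA whose target-binding loop (9-nt LTG + 4-nt RTG) is reprogrammed; the rest of the 177-nt WT IS621 bridge RNA scaffold is fixed. The plasmid is co-electroporated with a WT donor plasmid; recombinase is induced with 0.1 mM IPTG and recombinants are selected on kanamycin. Recombinant barcodes are sequenced, converted to CPM, averaged over two biological replicates and corrected by the unselected control CPM. Molecule = full bridge RNA written as DNA: LTG = specificity nt 1-9, RTG = reverse complement of specificity nt 8-11, in the WT scaffold.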
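Note: IS621 recombinase and bridge RNA in Escherichia coli cells.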

Row | Sequence | recombinant barcode read abundance (log10)
1 | ACTAGTCCTTGGGTTCTAACCTGTTGCCT (site ACTAGTCCTAC) | 0.649
2 | ACTAGTCCTTGGGTTCTAACCTGTTGCCT (site ACTAGTCCTAG) | 0.337
3 | ACTAGTCCTTGGGTTCTAACCTGTTGCCT (site ACTAGTCCTAT) | 0.0393
4 | ACTAGTGCTTGGGTTCTAACCTGTTGCCT (site AATAGTGCTAG) | 0.111
5 | ACTAGTGCTTGGGTTCTAACCTGTTGCCT (site ACTAGTGCTAG) | 0.117
6 | ACTAGTGCTTGGGTTCTAACCTGTTGCCT (site AGTAGTGCTAG) | 0.0194
7 | ACTAGTGCTTGGGTTCTAACCTGTTGCCT (site ATTAGTGCTAG) | 0.0112
8 | ACTCACTCTTGGGTTCTAACCTGTTGCCT (site ACTCACTCTAG) | 2.04
9 | ACTCACTCTTGGGTTCTAACCTGTTGCCT (site CGATCTCCTGT) | 0.0794
10 | ACTCGGCCTTGGGTTCTAACCTGTTGCGA (site ACTCGGCCTTC) | 2.11
11 | ACTCGGCCTTGGGTTCTAACCTGTTGCGA (site ACTGGGCCTTC) | 0.172
12 | ACTCGGCCTTGGGTTCTAACCTGTTGCGT (site ACTCGGCCTAC) | 2.56
13 | ACTCGGCCTTGGGTTCTAACCTGTTGCGT (site ACTCGGCCTAG) | 0.0703
14 | ACTCTAACTTGGGTTCTAACCTGTTGCTT (site ACTATAACTAA) | 0.154
15 | ACTCTAACTTGGGTTCTAACCTGTTGCTT (site ACTCTAACTAA) | 0.121
16 | ACTCTAACTTGGGTTCTAACCTGTTGCTT (site ACTGTAACTAA) | 0.0269
17 | ACTCTAACTTGGGTTCTAACCTGTTGCTT (site ACTTTAACTAA) | 0.0201
18 | ACTGGTTCTTGGGTTCTAACCTGTTGCCG (site ACTGGTTCTCG) | 0.696
19 | ACTGGTTCTTGGGTTCTAACCTGTTGCCG (site TACTCACCTAA) | 0.0451
20 | ACTGTCACTTGGGTTCTAACCTGTTGCGG (site ACTGTCACTCC) | 3.28
21 | ACTGTCACTTGGGTTCTAACCTGTTGCGG (site GTGTATTCTAG) | 0.046

Row | Sequence | recombinant barcode read abundance (log10)
22 | ACTTAGACTTGGGTTCTAACCTGTTGCCT (site ACTTAGACTAG) | 1.02
23 | ACTTAGACTTGGGTTCTAACCTGTTGCCT (site ACTTAGACTCG) | 0.313
24 | ACTTAGACTTGGGTTCTAACCTGTTGCCT (site ACTTAGACTGG) | 0.258
25 | ACTTAGACTTGGGTTCTAACCTGTTGCCT (site ACTTAGACTTG) | 0
26 | ACTTAGACTTGGGTTCTAACCTGTTGCGG (site ACTTAGACTCC) | 2.56
27 | ACTTAGACTTGGGTTCTAACCTGTTGCGG (site TCTTAGACTCC) | 0.416
28 | ACTTAGCCTTGGGTTCTAACCTGTTGCCT (site ACTTAGCCTAG) | 1.33
29 | ACTTAGCCTTGGGTTCTAACCTGTTGCCT (site ACTTAGCCTAT) | 0.0989
30 | ACTTCCACTTGGGTTCTAACCTGTTGCCT (site ACTTCCACTAG) | 0.613
31 | ACTTCCACTTGGGTTCTAACCTGTTGCCT (site CCTTCCACTAG) | 0.0483
32 | ACTTCCACTTGGGTTCTAACCTGTTGCCT (site GCTTCCACTAG) | 0.0573
33 | ACTTCCACTTGGGTTCTAACCTGTTGCCT (site TCTTCCACTAG) | 0.111
34 | ACTTCTACTTGGGTTCTAACCTGTTGCTA (site ACATCTACTTA) | 0.141
35 | ACTTCTACTTGGGTTCTAACCTGTTGCTA (site ACTTCTACTTA) | 0.0751
36 | ACTTGAACTTGGGTTCTAACCTGTTGCCT (site ACATGAACTAG) | 0.419
37 | ACTTGAACTTGGGTTCTAACCTGTTGCCT (site ACCTGAACTAG) | 0.0239
38 | ACTTGAACTTGGGTTCTAACCTGTTGCCT (site ACGTGAACTAG) | 0.146
39 | ACTTGAACTTGGGTTCTAACCTGTTGCCT (site ACTTGAACTAG) | 0.383
40 | ACTTGAACTTGGGTTCTAACCTGTTGCTT (site ACTTGAACTAA) | 0.0959
41 | ACTTGAACTTGGGTTCTAACCTGTTGCTT (site ACTTTAGCTAA) | 0.0785
